Assay results: patent publication US10494402B2, “Peptides that stimulate subcutaneous adipogenesis” (The Regents of the University of California, priority 2012, dated 2019)

Tests used:
Format in all cases: cell-based
2D human Pre-adipocytes = assay: Adipogenic potential ranking in 2D tissue culture, human pre-adipocytes; settings: scale of 0-5, 5 highest
Experimental: Examples of the adipogenic effects of RHAMM antagonists (peptide B (SEQ ID NO: 2), peptide P15-1 (SEQ ID NO. 1), and the antibody to peptide B) are summarized in Table 1. Peptide P15-1, peptide B, and a RHAMM antibody were assayed for their effects on pre-adipocyte stem cells in culture and when injected into the dermis of aged rats. Reagents were ranked on a scale of 0-5 with 5 representing the highest possible score and a completely filled in Harvey ball. “2D” refers to two-dimensional tissue culture.

[1] = system: rat mesenchymal stem cells; assay: Adipogenesis Assay 1 (IBMX/dexamethasone priming, peptide replaces insulin; Oil Red O or BODIPY); settings: for Fold adipogenic induction vs. negative control / Specific activity (activity/1000 daltons) / adipogenesis, absorption of Oil Red O at 520 nm, fold increase compared with negative control / adipogenesis, number of fat droplets relative to negative controls (image analysis): Assay 1; for adipogenesis, absorption of Oil Red O at 520 nm, fold increase compared with negative control / adipogenesis, number of fat droplets relative to negative controls (image analysis): rat bone marrow mesenchymal stem cells, n=3; for adipogenesis, absorption of Oil Red O at 520 nm, fold increase compared with negative control: 0.1-25 μg
Experimental: Reagents: (1) 3-isobutyl-1-methylxanthine (IBMX) solution: 0.5M in DMSO; (2) Insulin solution: 10 mg/mL recombinant human insulin; (3) Dexamethasone solution in 10 mM in ethanol; (4) Oil Red O (0.36% in 60% isopropanol) or BODIPY dye (BODIPY 493/503 (4,4-difluoro-1,3,5,7-tetramethyl-4-bora-3a,4a-diaza-s-indacene-8-propionic acid, succinimidyl ester) from Invitrogen at 4-10 μM).
Adipogenesis Initiation Media: mesenchymal stem cell expansion media/0.5 mM IBMX/1 μM dexamethasone. Mesenchymal stem cell expansion media is commercially available from Millipore. The IBMX Solution was diluted 1:1000 and the Dexamethasone Solution was diluted 1:10,000 in expansion media containing antibiotics and antimycotics. The prepared media was stored at 4° C.
Adipogenesis Progression Media for positive control: mesenchymal stem cell expansion media/10 μg/mL insulin. The Insulin Solution was diluted 1:1000 in the expansion media and stored at 4° C.
Experimental Adipogenesis Progression Media: mesenchymal stem cell expansion media/1-100 μg/mL RHAMM antagonist peptides.
Adipogenesis Maintenance Media: mesenchymal stem cell expansion media containing antibiotics and antimycotics.
Negative Control Media: DMEM/10% normal calf serum.
Pre-adipocyte stem cells including bone marrow mesenchymal stem cells and fibroblasts including reticular and papillary dermal fibroblasts were propagated using standard tissue culture methods. Cells were trypsinized to remove the cells from the substratum. The trypsin was neutralized and cells were counted using a hemocytometer. Cells were resuspended at 30,000 cells/mL in expansion media. […] of cell suspension was plated per well of 24-well plate, with several wells left empty for blank well staining.
Cells were incubated for 1-2 days until they reached confluency. Approximately 1.8 mL of media was removed from each well and replaced with 2 mL Adipogenesis Initiation Media. For negative control wells, expansion media only was used at this step and for subsequent media changes. For all media changes, media was replaced as gently as possible to avoid disturbing the monolayer.
Cells were incubated for 48 hours at 37° C., 5% CO2. 2 mL media was removed from each well, and replaced with 2 mL either positive control or experimental Adipogenesis Progression Media per well. Cells were again incubated for 48 hours at 37° C., 5% CO2. 2 mL of media was removed from each well and replaced with 2 mL Adipogenesis Maintenance Media per well. In addition, media was added to the empty wells reserved for blank well staining Cells were incubated for at least 48 hours at 37° C., 5% CO2. Media was replaced every 48-72 hours. Accumulation of intracellular lipid droplets continued for at least 5 days.
For quantification of Oil Red O staining, media was removed and cells were washed twice with PBS, using care to gently add the PBS. 0.5 mL Oil Red O solution was added per well of 24-well plate, including to the wells lacking cells, but containing media. Cells were incubated for 15 minutes at room temperature. The staining solution was then removed and wells were washed three times with 1 mL of phosphate buffered saline (PBS). In some experiments, following removal of the last wash, stained plates were scanned or photographed.
Adipogenesis was quantified using a spectrophotometer or fluorometer. 0.25 mL Dye Extraction Solution (isopropyl alcohol) was added per well, and the plate was set on an orbital shaker or platform rocker for 15-30 minutes. Extracted dye was transferred into a cuvette and absorbance was read in a spectrophotometer at visible range for oil red 0 or transferred to a 96-well plate and quantified in a plate reader.
For quantification of BODIPY dye uptake, media was removed and cells were washed twice with PBS, using care to gently add the PBS. Cells were then fixed in 3% paraformaldehyde, washed in PBS then incubated for 1 hour in the dark with the BODIPY solution, prepared in PBS. […]

[2] = system: human adipose-derived stem cells (h-ADSCs); assay: Differentiation of human adipose-derived stem cells (h-ADSCs); settings: for adipogenesis, absorbance of extracted Oil Red O: 5 μg/ml in adipogenic cocktail in the absence of insulin and PPARγ agonist, two weeks; for adipogenesis (micrographs) in the absence of PPARγ agonist / adipogenesis (micrographs) in the presence of PPARγ agonist: B peptide 5 μg/ml, 6-mer 5 μg/ml or 20 μg/ml
From the text: The Adipocyte Differentiation Medium contained DMEM/Ham's F-12 (1:1 v/v), HEPES pH 7.4, fetal bovine serum, biotin, penicillin, streptomcyin, amphotericin B, pantothenate, human insulin, dexamethasone, isobutylmethylxanthine (IBMX) and a PPARγ agonist. This positive stimulus was used as the positive control. […] The upper right panel and the lower left panel of FIG. 14 provide two different fields of view of the h-ASDCs exposed to the adipogenic cocktail at 4× magnification.
Monolayers that were maintained in Preadipocyte Medium only (ZenBio catalog no. PM-1, containing DMEM/Ham's F-12 (1:1 v/v), HEPES 7.4, fetal bovine serum, penicillin, streptomcyin, and amphotericin B) or monolayers that were exposed to the adipogenic cocktail without insulin and PPARγ agonist were both used as negative controls. […] The negative controls shown in FIG. 15 were exposed to Preadipocyte Medium only. […] The adipogenic peptides (peptide B and the KSEVSK 6-mer) were mixed into adipogenic cocktail that lacked the PPARγ agonist and/or insulin and used as the experimental condition.
To quantify the adipogenic activity of the KSEVSK 6-mer (SEQ ID NO: 3) and the B peptide (SEQ ID NO: 2), h-ADSCs were exposed to 5 μg/ml of these peptides in the adipogenic cocktail in the absence of insulin and PPARγ agonist). The experiment was terminated two weeks after the addition of adipogenic mixtures. At this time, photographs of monolayers were taken and the lipid droplet accumulation was quantified by measuring the absorbance of extracted Oil Red 0. […] The peptides stimulated adipogenesis to a similar extent when the PPARγ agonist alone or both the PPARγ agonist and insulin were deleted from the adipogenic cocktail (not shown).
In further studies using h-ADSCs, two different protocols were used. In the first of these protocols, h-ADSCs were exposed to the adipogenic cocktail plus the KSEVSK 6-mer (SEQ ID NO: 3) or B peptide (SEQ ID NO: 2) at concentrations of 5 μg/ml or 20 μg/ml. […] In the second of these protocols, h-ADSCs were exposed to adipogenic cocktail in which the PPARγ agonist was replaced with either the KSEVSK 6-mer or the B peptide at concentrations of 5 μg/ml or 20 μg/ml. […] Statistical analysis were performed compared to negative control. Data presented as mean±standard error (n=3).

## KLKDENSQLKSEVSK [peptide B]
2D human Pre-adipocytes
  adipogenic potential, 2D human Pre-adipocytes: 5
[1]
  Fold adipogenic induction vs. negative control: 1.85
  Specific activity (activity/1000 daltons): 1.0 activity/1000 daltons
  adipogenesis, absorption of Oil Red O at 520 nm, fold increase compared with negative control: significantly stimulated adipogenesis as compared to the negative control
  adipogenesis, number of fat droplets relative to negative controls (image analysis): significantly stimulated adipogenesis as compared to the negative control
[1]; bone marrow mesenchymal stem cells, depending upon the screening assay used (assay 1 or 2)
  amount at which a maximum adipogenic effect was obtained: 1 to 5 µg
[2]
  adipogenesis, absorbance of extracted Oil Red O: strongly promoted adipogenesis compared to the negative control (p<0.05)
  adipogenesis (micrographs) in the absence of PPARγ agonist: underwent adipogenesis
  adipogenesis (micrographs) in the presence of PPARγ agonist: underwent adipogenesis

## KSEVSK [KSEVSK 6-mer]
[1]
  Fold adipogenic induction vs. negative control: 2.83
  Specific activity (activity/1000 daltons): 3.76 activity/1000 daltons
  adipogenesis, absorption of Oil Red O at 520 nm, fold increase compared with negative control: significantly stimulated adipogenesis as compared to the negative control
  adipogenesis, number of fat droplets relative to negative controls (image analysis): significantly stimulated adipogenesis as compared to the negative control
[1]; calculated from adipogenesis data of assays 1 and 2
  specific activity compared among peptide B and 9-, 7-, 6-mer: highest specific activity
[1]; truncation experiments, assays 1 and 2, FIGS. 7, 8, 9
  adipogenic activity of truncation fragments: also found to be adipogenic
[2]
  adipogenesis, absorbance of extracted Oil Red O: strongly promoted adipogenesis compared to the negative control (p<0.05)
  adipogenesis (micrographs) in the absence of PPARγ agonist: underwent adipogenesis
  adipogenesis (micrographs) in the presence of PPARγ agonist: underwent adipogenesis
[2]; two weeks after initiation, peptide in cocktail lacking PPARγ agonist and/or insulin
  adipogenesis (lipid droplets) compared with positive control: more effective at promoting adipogenesis than the positive control
